# In patent US10626077B2, “Salvianolic acid compound T, preparation method therefor, and use thereof” (TASLY PHARMACEUTICAL GROUP CO., LTD., priority 2013, dated 2020):
# How the values were obtained:
# [1] = tested on: mice pulmonary fibrosis induced by bleomycin; experiment: Anti-pulmonary fibrosis experiment in mice induced by bleomycin; type: in vivo, Kunming mice; details: 3 weeks
# Procedure: Dividing the 40 mice into 4 groups: □ normal control group, given nasal dripping of normal saline, drenched with normal saline; □ model control group:given nasal dripping of bleomycin, drenched with normal saline; □(S)-salvianolic acid T group (16 mg/kg): given nasal dripping of bleomycin, drenched with (S)-salvianolic acid T solution; □(R)-salvianolic acid T group (16 mg/kg): given nasal dripping of bleomycin, drenched with (R)-salvianolic acid T solution; 10 mice in each group.
# On the first day of the experiment, the mice were anesthetized with chloral hydrate, each mouse was given disposable nasal dripping of 50 μg bleomycin to establish the pulmonary fibrosis model. On the second day of the experiment, two treatment groups were drenched with (S)/(R)-salvianolic acid T, the model group and the normal group were drenched with equal volume of normal saline, once each day, 3 consecutive weeks. On the 21th day of the experiment, serum was separated from the blood collected from the orbital vein to detect TGF-β1, the mice were killed to take lungs, ground with double distilled water (the ratio of lungs and double distilled water was 1:5 (w/v)) into tissue homogenate, centrifuged to detect the MDA, superoxide dismutase (SOD), catalase (CAT), peroxidase (POD) in the tissues.
# [2] = tested on: pituitrin-caused acute myocardial ischemia in rats; experiment: Pituitrin-caused experimental acute myocardial ischemia in rats (ECG J point and T wave); type: in vivo, SD rats; design: J point / T wave: unit not given here
# Procedure: Administration dose of the (R)-salvianolic acid T lyophilized powder was 10 mg/kg body-weight in high-dose group; 5.0 mg/kg body-weight in low-dose group.
# 2.1 Screening of Animals: Before formal experiment, rats were injected via vena caudalis with pituitrin (Pit) (1 U/kg). Normal ECG and the ECG of 5 min after injection were recorded to observe J point elevation and T wave abnormality. Animals who had abnormal ECG before injection or who were insensitive to Pit were rejected.
# 2.2 Grouping of Animals: The desirable rats were divided into 3 groups randomly, respectively named […]Model control group, □(R)-salvianolic acid T lyophilized powder low-dose group; □(R)-salvianolic acid T lyophilized powder high-dose group.
# 3. Experimental Methods: SD rats, in body-weight of 220-250 g, half male and half female, were randomly divided into groups, 10 animals in each group. The rats in the treatment groups were drenched with aqueous suspensions of different samples each day, while the rats in the model control group were drenched with equal volume of normal saline. All animals were consecutively administered for 7 days. 40 min after final administration, the rats were anesthetized and connected with devices to record lead II normal ECG. The pituitrin (Pit) was injected at a constant speed in the dosage of 1 U/kg body-weight via vena caudalis within about 10 s. ECG changes were recorded at 0 s, 5 s, 10 s, 15 s, 30 s, 45 s, 1 min, 2 min, 3 min, 4 min, 5 min, 10 min and 15 min after administration. Differences between pre injection and post injection of Pit of each group as well as between the treatment group and the model control group were compared to analyze changes of J point and T wave, and the data were analyzed by t-test.
# [3] = tested on: L929 cells induced by TGF-β1; experiment: Inhibition of L929 cell proliferation induced by TGF-β1 (MTT); type: cell-based; details: 2 μg/L TGF-β1, 72 h, MTT method
# Procedure: L929 cells with a cell population of 5×10^7/L adjusted by DMEM culture solution containing 10% fetal bovine serum were seeded into 96 well plate, cultured for 24 h. Supplementing the same culture medium containing 2 μg/L TGF-β1 and (S)/(R)-salvianolic acid T of different concentrations. There were 6 multiple pores in each group, final concentration of (S)/(R)-salvianolic acid T was set as 0, 1, 3, 10, 20, 40, 80, 150 μmol/L. Removing medium after being cultured for 72 h, assaying the cell activity by MTT method.
# [4] = DPPH free-radical scavenging reaction
# Procedure: Absorbance of the reaction solution was measured at 517 nm. In this study, vitamin C was regarded as a positive control. Free-radical scavenging rate was calculated in accordance with the following equation: Free-radical scavenging rate (%)=[1−Asample/Acontrol)/Acontrol]×100% Wherein, the Asample means the absorbance of the tested samples, and Acontrol means the absorbance of blank control.
# [5] = tested on: rats with myocardial infarction induced by coronary artery ligation; experiment: Myocardial infarction rate (TTC staining) after coronary artery ligation; type: in vivo, SD rats; details: high-dose group compared with aspirin group; FIG. 11 heart biopsy
# Procedure: Clean male SD rats were taken and placed in groups randomly according to the body-weight, including pseudo operation group (distilled water), model group (distilled water), aspirin group, (S)-salvianolic acid T low-dose group, (S)-salvianolic acid T high-dose group, and there were 10 rats in each group. Each group of rats were administrated by gastric administration once a day, continuously for 10 days. […] Recording standard II lead ECG at 5 minutes before surgery, 0 s, 1 min, 5 min, 15 min, 1 h, 4 h after the ligation, to investigate the changes of J point of ECG. Taking out the heart immediately after the end of the experiment, washing away the blood with normal saline, cutting off the atrium and the bottom of the blood vessels, weighing the mass of the ventricle, cutting the ventricle into 5 pieces on average along the atrioventricular groove and putting them into 1% (w/v) TTC solution, dyeing in the water bath at a constant temperature of 37 °C for 5 min, taking digital photos firstly after taking them out, then separating the unstained parts (that is, the infarct parts) and weighing to calculate the percentage of them in the mass of total ventricular (myocardial infarction percentage), and performing t test with ischemia model group. The formula for calculating the infarct percentage is as follows: Infarct percentage (%)=(the mass of pale areas/the mass of the ventricle)×100%
# [6] = 16 mg/kg, lung tissue homogenate
# [7] = high-dose group (10 mg/kg), 0 s after pituitrin
# [8] = high-dose group (10 mg/kg), 15 s after pituitrin
# [9] = high-dose group (10 mg/kg), 30 s after pituitrin
# [10] = high-dose group (10 mg/kg), 45 s after pituitrin
# [11] = high-dose group (10 mg/kg), 1 min after pituitrin
# [12] = high-dose group (10 mg/kg), 5 min after pituitrin
# [13] = high-dose group (10 mg/kg), 10 min after pituitrin
# [14] = high-dose group (10 mg/kg, drenched 7 days), normal ECG before pituitrin
# [15] = low-dose group (5.0 mg/kg), 0 s after pituitrin
# [16] = low-dose group (5.0 mg/kg), 15 s after pituitrin
# [17] = low-dose group (5.0 mg/kg), 30 s after pituitrin
# [18] = low-dose group (5.0 mg/kg), 45 s after pituitrin
# [19] = low-dose group (5.0 mg/kg), 1 min after pituitrin
# [20] = low-dose group (5.0 mg/kg), 5 min after pituitrin
# [21] = low-dose group (5.0 mg/kg), 10 min after pituitrin
# [22] = low-dose group (5.0 mg/kg, drenched 7 days), normal ECG before pituitrin
smiles,measurement,setting,value
O=C(/C=C/c1ccc(O)c(O)c1/C(=C\c1ccc(O)c(O)c1)C(=O)O)O[C@H](Cc1ccc(O)c(O)c1)C(=O)O [(R)-salvianolic acid T],Serum TGF-β1,"[1]; 16 mg/kg drenched once each day, day 21",254 ± 29 ng/L
same,CAT,[1]; [6],23.1 ± 2.9 U/g
same,MDA,[1]; [6],311 ± 29 µg/g
same,POD,[1]; [6],16.4 ± 1.9 U/g
same,SOD,[1]; [6],52.2 ± 5.1 U/g
same,Tissue TGF-β1,[1]; [6],562 ± 69 pg/g
same,effect of anti-acute myocardiac ischemia,[2]; 10.0 mg/kg,had effect of anti-acute myocardiac ischemia
same,J point,[2]; [7],−0.040 ± 0.039
same,T wave,[2]; [7],0.128 ± 0.106
same,J point,[2]; [8],−0.069 ± 0.035
same,T wave,[2]; [8],0.150 ± 0.101
same,J point,[2]; [9],−0.058 ± 0.035
same,T wave,[2]; [9],0.100 ± 0.095
same,J point,[2]; [10],−0.052 ± 0.031
same,T wave,[2]; [10],0.134 ± 0.105
same,J point,[2]; [11],−0.016 ± 0.037
same,T wave,[2]; [11],0.145 ± 0.099
same,J point,[2]; [12],−0.058 ± 0.049
same,T wave,[2]; [12],0.127 ± 0.104
same,J point,[2]; [13],-0.061 ± 0.049
same,T wave,[2]; [13],0.150 ± 0.102
same,J point,[2]; [14],−0.049 ± 0.037
same,T wave,[2]; [14],0.099 ± 0.073
same,J point,[2]; [15],−0.040 ± 0.027
same,T wave,[2]; [15],0.134 ± 0.104
same,J point,[2]; [16],0.023 ± 0.039
same,T wave,[2]; [16],0.211 ± 0.109
same,J point,[2]; [17],−0.052 ± 0.022
same,T wave,[2]; [17],0.189 ± 0.120
same,J point,[2]; [18],−0.030 ± 0.041
same,T wave,[2]; [18],0.176 ± 0.137
same,J point,[2]; [19],−0.016 ± 0.032
same,T wave,[2]; [19],0.151 ± 0.097
same,J point,[2]; [20],−0.034 ± 0.052
same,T wave,[2]; [20],0.121 ± 0.101
same,J point,[2]; [21],−0.025 ± 0.051
same,T wave,[2]; [21],0.142 ± 0.099
same,J point,[2]; [22],−0.054 ± 0.046
same,T wave,[2]; [22],0.101 ± 0.069
same,IC50,[3],26.9 µM
same,free-radical scavenging compared with vitamin C,[4]; compared with positive control vitamin C,much higher free-radical scavenging than that of the vitamin C
same,Free-radical scavenging rate,"[4]; sample 0.625 μg/ml, 100 μM DPPH, 20 min, 25° C.",10.51 ± 0.73%
same,Free-radical scavenging rate,[4]; sample 1.25 μg/ml,28.15 ± 2.47%
same,Free-radical scavenging rate,[4]; sample 2.5 μg/ml,43.41 ± 1.85%
same,Free-radical scavenging rate,[4]; sample 5 μg/ml,85.59 ± 8.75%
same,Free-radical scavenging rate,[4]; sample 10 μg/ml,99.47 ± 5.14%
same,effect on preventing acute myocardial infarction induced by coronary artery ligation,[5],equal effect
